The source of these data is patent publication US7618946B2, “Analgesic compounds, extracts containing same and methods of preparation” (Griffith University, priority 2003, dated 2009).

In series [1] the test system is FCA-rats. As to the kind of experiment: paw pressure test in rat model of inflammatory pain (FCA). It counts as in vivo, Sprague-Dawley rats. The conditions noted are these: i.v. bolus; for dose-response of antinociceptive effect (AUC versus dose): ipsilateral hindpaw, FIG. 68. The method, then: Adult male Sprague-Dawley rats were housed in a temperature controlled room (21±2° C.) with a 12 h/12 h light/dark cycle and free access to both food and water. Ethical approval for this study was obtained from the Animal Experimentation Ethics Committee of The University of Queensland.
Inflammation of the rat hindpaw was induced by intra-plantar (i.pl.) injection of Freund's Complete Adjuvant (FCA, 0.15 mL) whilst rats were under brief 3% isoflurane: 97% oxygen inhalational anaesthesia. Inflammatory pain was assessed using the paw pressure test (see below for details). The test compounds were administered on either day 5 or day 6 following i.pl. FCA administration.
Jugular vein cannulation was performed whilst rats were anaesthetised with 3% isoflurane: 97% O2 inhalational anaesthesia maintained using a calibrated Trilene vapouriser. Polyethylene cannulae (previously filled with heparinised saline) were implanted into the right common jugular vein for i.v. drug dosing. Cannulae were exteriorized by subcutaneous (s.c.) tunneling to an incision made in the interscapular area, and protected by a stainless steel spring, the base of which was positioned in a subcutaneous pocket between the scapulae. Incisions were closed with sterile silk sutures. After surgery, rats were housed singly in metabolic cages and were allowed to recover post-operatively for a minimum of 2 h before further experimentation. Food and water were available ad libitum during the recovery period.
Each of the compounds F70.3.2 and F70.3.6 were dissolved in sterile saline. The compounds of interest were administered initially in a dose of 0.01 mg/kg in an injection volume of 0.5 mL. The other i.v. doses administered in this preliminary study were as follows:
Control rats received bolus doses of i.v. saline. Antinociceptive Testing: Paw Pressure Test
For the paw pressure test, rats were gently restrained under a towel, and incremental mechanical pressure (maximum=250 g) was applied to the dorsal surface of the hindpaw. The pressure required to elicit paw withdrawal, the paw pressure threshold (PPT), was determined. The mean of 3 consecutive measurements, separated by 10 s, was determined. The same procedure was then performed on the contralateral side with the sequence of sides being alternated to preclude order effects. Similarly, rats were gently restrained under a towel for the quantification of paw volumes using a plethysmometer.
Following administration of i.v. bolus doses of each of the test compounds (F70.3.2 and F70.3.6), paw withdrawal thresholds (g) were normalized by subtraction of the individual baseline PWT values quantified immediately prior to drug administration. The area under the normalized PWT versus time (AUC) was calculated using the trapezoidal rule. Dose-response curves were constructed by plotting the AUC values versus the i.v. dose for each of F70.3.2 and F70.3.6.

For series [2], the system named is FCA-rats. As to the kind of experiment: side effects observed after i.v. bolus doses in FCA-rats. Details: key to Intensity: 0 = none; 1 = mild; 2 = moderate; 3 = severe; 4 = extreme. It counts as in vivo, Sprague-Dawley rats. How it is done:
Each of the compounds F70.3.2 and F70.3.6 were dissolved in sterile saline. The compounds of interest were administered initially in a dose of 0.01 mg/kg in an injection volume of 0.5 mL. The other i.v. doses administered in this preliminary study were as follows: […]

In series [3] the test system is Male Quackenbush mice. The experiment in a line: mouse formalin assay. It is filed as in vivo.
Procedure: The formalin assay involves the subcutaneous injection of a small amount of formalin into the fore or hind paw of a rat or mouse and the behavioural response to this injection is recorded as a measure of pain response.
The formalin assay was preformed on male mice using morphine, and other compounds of interest, as an analgesic, to test the viability and reliability of the assay as a means of measuring pain response in mice.
Male Quackenbush mice weighing 25-35 g were used. They were housed in colony cages (400×300×130 mm; Wiretainers) with ad libitum access to food (standard rat/mouse pellets; Norco Feeds) and water. For short term storage a maximum of 15-16 mice were housed per cage while for longer periods this number was reduced to less than 10 mice per cage. Bedding material was wood shavings or more commonly recycled paper pellets (Breeders Choice).
Formalin (Ajax) was supplied as solution of approximately 37.5% formaldehyde containing 10% methanol as a preservative. […]
Morphine and other compounds of interest were injected in a volume of 10 mL/kg intraperitoneally (ip) 30 minutes prior to formalin administration. […] The sole behavioural response recorded was the amount of time the animal spent biting or licking the injected paw or leg per 5 minute block was recorded. […]
Using this value a percentage pain inhibition can be calculated using the formula:—
For series [4] the following is noted: cited from earlier work; for inhibition of acetic acid induced writhing: 10 and 30 mg/kg (sc) [56]; for ED50: acetic acid writhing test [52]. (In general: An intraperitoneal irritant provokes the stretching counted in writhing tests.)
Series [5] relates to mice. Particulars: mice [59]; cited from earlier work.
Series [6] relates to mice. Particulars: mice [59]; cited from earlier work. This is another data set of the same source.
The test system of series [7] is mice. The conditions noted are these: cited from earlier work; for analgesia in both phases of the formalin test: [61]; for response in both early and late phases: known analgesics [61]; for effect on late phase: anti-inflammatory compounds and steroids [61].
Setting [8] is: i.v. 0.005 mg/kg, Apnoea, Table 19.
The mark [9] stands for this setting: i.v. 0.02 mg/kg, Apnoea, Table 19.
Setting [10] is: i.v. 0.02 mg/kg, Staring, Table 19.
Where [11] appears, read: i.v. 0.005 mg/kg, Body shaking, Table 20.
Where [12] appears, read: i.v. 0.01 mg/kg, Body shaking, Table 20.
The mark [13] stands for this setting: i.v. 0.02 mg/kg, Staring, Table 20.
Where [14] appears, read: i.v. 0.05 mg/kg, Apnoea, Table 20.
The mark [15] stands for this setting: i.v. 0.05 mg/kg, Staring, Table 20.

“Also recorded” adds a separate entry of the source.

`CC(=O)OCC12C(O)CC3(C)C(=CCC4C5(C)CCC(OC6OC(C(=O)O)C(O)C(OC7OCC(O)C(O)C7O)C6OC6OC(CO)C(O)C(O)C6O)C(C)(C)C5CCC43C)C1CC(C)(C)C(OC(=O)c1ccccc1)C2O` [Compound F70.3.2, 3-O-β-D-xylopyranosyl(1→3)-[β-D-galactopyranosyl(1→2)]-β-D-glucuronopyranosyl-21-O-benzoyl-28-O-acetyl barringtogenol C]: in series [1], the “antinociception, contralateral (non-inflamed) hindpaw” value is given as “absence of antinociception”; the “dose-response of antinociceptive effect (AUC versus dose)” value is “distinct increase and then plateau”. The “antinociception, ipsilateral (inflamed) hindpaw (paw withdrawal threshold)” value in series [1] (FIG. 65) was “dose-related increase in the antinociceptive potency”. In addition, in series [2] (setting [8]), the Duration amounted to 0.5 min, the Intensity turned out to be 1, the “No of rats observed with side-effect” value is listed as 1/3 and the Onset stood at 180 min. In addition, the Side effect result in series [2] (i.v. 0.005 mg/kg, Table 19) is “Apnoea”. Further, in series [2] (setting [9]), the Duration amounted to 15 min, the Intensity stood at 1, the “No of rats observed with side-effect” value is on record as 1/3 and the Onset was determined as 30 min. In series [2] (setting [10]), the Duration is given as 15 min, the Intensity was 1, the “No of rats observed with side-effect” value is recorded as 1/3 and the Onset is recorded as 30 min. In series [2] (i.v. 0.02 mg/kg, Table 19, 0.02 mg/kg), the Side effect result is recorded as “Apnoea; also recorded: Staring”.
As to `CC(=O)OC1C(OC2OCC(OC(=O)c3ccccc3)C(OC(=O)C(C)C(C)OC(=O)c3ccccc3)C2O)C(C)(C)CC2C3=CCC4C5(C)CCC(OC6OC(C(=O)O)C(O)C(OC7OCC(O)C(O)C7O)C6OC6OC(CO)C(O)C(O)C6O)C(C)(C)C5CCC4(C)C3(C)CC(O)C21CO` [Compound F70.3.6, 3-O-β-D-xylopyranosyl(1→3)-[β-D-galactopyranosyl(1→2)]-β-D-glucuronopyranosyl-21-O-[3-(3-benzoyl-2-methylbutanoyl)-4-benzoyl-α-L-arabinopyranosyl]-22-O-acetyl barringtogenol C], the “antinociception, contralateral (non-inflamed) hindpaw” value in series [1] was “absence of antinociception”. In addition, the “antinociception, ipsilateral hindpaw” value in series [1] (dose range 0.002-0.01 mg/kg, FIG. 66) is “dose-related increase in the antinociceptive potency”. Moreover, in series [1] (doses above 0.01 mg/kg), the “antinociceptive response, ipsilateral hindpaw, on further increases in dose” value is listed as “decreased rather than an increased antinociceptive response”. Further, the “dose-response of antinociceptive effect (AUC versus dose)” value in series [1] is “distinct increase and then plateau”. In addition, the Duration in series [2] (setting [11]) worked out at 5 min; in series [2] (setting [12]), 5 min; in series [2] (setting [13]) it was 15 min; in series [2] (setting [14]), 30 min; in series [2] (setting [15]), 15 min. The Intensity in series [2] (setting [11]), in series [2] (setting [12]), in series [2] (setting [13]), in series [2] (setting [14]) and in series [2] (setting [15]) was 1 throughout. Besides, the “No of rats observed with side-effect” value was 1/3 in series [2] (setting [11]); 1/3 in series [2] (setting [12]); 1/3 in series [2] (setting [13]); 1/1 in series [2] (setting [14]); 1/1 in series [2] (setting [15]). In addition, the Onset in series [2] (setting [11]) is listed as 15 min; in series [2] (setting [12]), 30 min; in series [2] (setting [13]) it was 45 min; in series [2] (setting [14]) it was 5 min; in series [2] (setting [15]), 30 min. The Side effect entry in series [2] (i.v. 0.005 mg/kg, Table 20) is reported as “Body”; in series [2] (i.v. 0.01 mg/kg, Table 20) it was “Body”; in series [2] (i.v. 0.02 mg/kg, Table 20), “Staring”; in series [2] (i.v. 0.05 mg/kg, Table 20, 0.05 mg/kg, onset 5 min, lasting 30 min), “Apnoea”; in series [2] (i.v. 0.05 mg/kg, Table 20, 0.05 mg/kg, onset 30 min, lasting 15 min), “Staring”.
Regarding `C[S+](C)[O-]` [DMSO control, dimethyl sulfoxide], the “reduction of pain response by DMSO” value in series [3] (high dose (5%) DMSO) is 57%.
Turning to `CC1(C)CC[C@]2(C(=O)O[C@@H]3O[C@H](CO)[C@@H](O)[C@H](O)[C@H]3O)CC[C@]3(C)C(=CC[C@@H]4[C@@]5(C)CC[C@H](O[C@@H]6O[C@H](CO)[C@@H](O)[C@H](O)[C@H]6O)[C@@](C)(C(=O)O)[C@@H]5CC[C@]43C)[C@@H]2C1` [Dianoside A], the “inhibition of acetic acid induced writhing” value in series [4] is “significantly inhibit”.
As for `CC1(C)CC[C@]2(C(=O)O[C@@H]3O[C@H](CO[C@@H]4O[C@H](CO)[C@@H](O)[C@H](O)[C@H]4O)[C@@H](O)[C@H](O[C@@H]4O[C@H](CO)[C@@H](O)[C@H](O)[C@H]4O)[C@H]3O)CC[C@]3(C)C(=CC[C@@H]4[C@@]5(C)CC[C@H](O[C@@H]6O[C@H](CO)[C@@H](O)[C@H](O)[C@H]6O)[C@@](C)(C(=O)O)[C@@H]5CC[C@]43C)[C@@H]2C1` [Dianoside B], the “inhibition of acetic acid induced writhing” value in series [4] is given as “significantly inhibit”.
With `CC(=O)Oc1ccccc1C(=O)O` [aspirin], in series [5], the “inhibition of p-phenylquinone induced writhing” value is given as 85%. Besides, the “inhibition of acetic acid induced writhing” value in series [6] was 80%. For the same molecule, the “analgesia in both phases of the formalin test” value in series [7] is recorded as “analgesic in a dose dependent manner in both phases”. Moreover, the ED50 (usually the midpoint of the dose-response relation) in series [4] was 125 mg/kg.
For `COc1ccc2c3c1O[C@H]1[C@@H](O)C=C[C@H]4[C@@H](C2)N(C)CC[C@@]341` [codeine], the “response in both early and late phases” value in series [7] was “can be reduced”.
Regarding `C[C@]12CCC(=O)C=C1CC[C@@H]1[C@@H]2[C@@H](O)C[C@@]2(C)[C@H]1CC[C@]2(O)C(=O)CO` [hydrocortisone], in series [7], the “effect on late phase” value is reported as “affected”.
In the case of `COc1ccc2c(c1)c(CC(=O)O)c(C)n2C(=O)c1ccc(Cl)cc1` [indomethacin], the “effect on late phase” value in series [7] is listed as “affected”.
For `CN1CC[C@]23c4c5ccc(O)c4O[C@H]2[C@@H](O)C=C[C@H]3[C@H]1C5` [morphine], in series [3] (Mus musculus, ip, read-out: ED50 (morphine dose response curve, pain inhibition)), the ED50 was found to be 4.8 mg/kg. The analgesia induced result in series [7] (at 6 mg/kg [64]) is reported as “almost complete analgesia”. The “response in both early and late phases” value in series [7] is listed as “can be reduced”. In addition, in series [7] (subcutaneous, entire experimental period [63]), the “ED50, entire experimental period” value was 4.8 mg/kg.
As for `COc1ccc2cc([C@H](C)C(=O)O)ccc2c1` [naproxen], the “effect on late phase” value in series [7] was “affected”.
Take `CN1CCOC(c2ccccc2)c2ccccc2C1` (centres unmarked) [nefopam]: in series [7], the “response in both early and late phases” value was “can be reduced”.
Turning to `Cc1ccccc1C(OCCN(C)C)c1ccccc1` (centres unmarked) [orphendarine], in series [7], the “response in both early and late phases” value is “can be reduced”.
For the molecule `CC(=O)Nc1ccc(O)cc1` [paracetamol], the “analgesia in both phases of the formalin test” value in series [7] is “analgesic in a dose dependent manner in both phases”.
As to barbatoside A, in series [4], the ED50 is listed as 95 mg/kg.
